“And” between values parts separate entries of the source, which are not always exact repeats. Identical values can stand only once.
Assays:
[1] = tested on: CFTR; assay: OSPD, forskolin / CFTRinh-172-induced change (CFTR-mediated Cl− secretion); assay type: in vivo, mice
Description: Using pharmacological activators and inhibitors, OSPD allows studying activities of various ion channels/transporters in the ocular surface.^12 In these studies, baseline OSPD is established using a high Cl^− solution that mimics the tear fihn. OSPD changes induced by amiloride (ENaC inhibitor) indicates Na^+ transport via ENaC. Similarly, OSPD changes induced by forskolin (cAMP agonist) and CFTRinh-172 (CFTR inhibitor) indicates Cl^− secretion via cAMP-activated Cl^− channels and particularly CFTR. Lastly, OSPD changes induced by Ca^2+ agonist ATP indicates Cl^− secretion mediated by CaCCs.
Sequential perfusion of the ocular surface with solutions containing amiloride (ENaC inhibitor), forskolin (cAMP agonist), CFTRinh-172 (CFTR inhibitor), and ATP (Ca^2+ agonist) thus allows determining activities of ENaC, CFTR, and CaCC ion channels, respectively (FIG. 4A).
Using CaSR antagonist NPS-2143 in the OSPD experiments confirmed the hypothesis. Perfusion of ocular surface with 30 μM NPS-2143 led to large hyperpolarization (−13 mV), which was 70% of subsequently applied maximal forskolin-induced hyperpolarization after which cAMP agonist forskolin had minimal further secretory effect (FIGS. 6A and 6B). […]
Ocular surface potential difference (OSPD) and tear fluid volume measurements were performed in mice with topically applied cinacalcet (CaSR activator) and NPS-2143 (CaSR inhibitor). […] As described previously,^12, 14, 15 open-circuit transepithelial potential differences were measured in response to serial perfusions of different isoosmolar (310 mOsm/kg H2O) solutions over the ocular surface at 5-10 ml/min. […] Each solution was perfused onto the ocular surface using a gravity perfusion system (ALA Scientific: Farmingdale, NY, USA) for 1-3 minutes until a stable OSPD reading was obtained.

[2] = Tear fluid volume by endodontic absorbent paper point tear test (EAPPTT); assay type: in vivo, BALB/c mice
Method: Endodontic absorbent paper point tear tests (EAPPTT) […] PBS with 30 μM NPS-2143 (or 0.2% DMSO control) in both eyes. […] The wetted length was measured using a millimeter-scale ruler viewed under a magnifying glass. All mice were kept at ambient conditions (approximately 50% humidity and 21° C.) and provided unrestricted access to food and water.

Compound	reversal of effect by CFTR inhibitor CFTRinh-172 ([1]; 10 μM CFTRinh-172 after NPS-2143 and forskolin)	Cl− secretory effect in mouse ocular surface ([1]; applied topically)	increase in tear fluid volume ([2]; single dose topical 0.001% or 30 μM, for at least eight hours) [%]	increase in tear fluid volume ([2]; topical 0.001% or 30 μM, single 10 μL dose, as early as 15 minutes after treatment)	inhibition of CFTR activity (lower CFTRinh-172 response) ([1]; 30 μM cinacalcet, 10 μM CFTRinh-172, concentration-dependent)
CC(C)(Cc1ccc2ccccc2c1)NC[C@@H](O)COc1cccc(Cl)c1C#N [NPS-2143, 2-chloro-6-[(2R)-3-([1,1-dimethyl-2-(2-naphthalenyl)ethyl]amino)-2-hydroxypropoxy]benzonitrile]	partially reversed	large Cl^− secretory current	> 60	60% and ~ 60%	–
C[C@@H](NCCCc1cccc(C(F)(F)F)c1)c1cccc2ccccc12 [cinacalcet]	–	–	–	–	up to 90%

Reference: patent US20260263410A1, “USE OF CALCIUM SENSING RECEPTOR ANTAGONISTS FOR TREATING OCULAR DISORDERS” (THE REGENTS OF THE UNIVERSITY OF CALIFORNIA, priority 2023, published 2026)
